# In patent US8129355B2, “Ketone ligands for modulating the expression of exogenous genes via an ecdysone receptor complex” (priority 2002, dated 2012):
# Where two headings read alike, the source gives them in different places.
# Molecular target: T1, Bombyx mori EcR (VP16 fusion, switch construct CVBE) with 6XEcRE LacZ reporter (Bombyx mori, UniProt P49881)
# T1 construct: expressed in transfected cells; host or cells: Human 293 kidney (HEK-293) cells, retrovirally infected, clone Z3
# T1 sequence (P49881 86-606 limits assumed): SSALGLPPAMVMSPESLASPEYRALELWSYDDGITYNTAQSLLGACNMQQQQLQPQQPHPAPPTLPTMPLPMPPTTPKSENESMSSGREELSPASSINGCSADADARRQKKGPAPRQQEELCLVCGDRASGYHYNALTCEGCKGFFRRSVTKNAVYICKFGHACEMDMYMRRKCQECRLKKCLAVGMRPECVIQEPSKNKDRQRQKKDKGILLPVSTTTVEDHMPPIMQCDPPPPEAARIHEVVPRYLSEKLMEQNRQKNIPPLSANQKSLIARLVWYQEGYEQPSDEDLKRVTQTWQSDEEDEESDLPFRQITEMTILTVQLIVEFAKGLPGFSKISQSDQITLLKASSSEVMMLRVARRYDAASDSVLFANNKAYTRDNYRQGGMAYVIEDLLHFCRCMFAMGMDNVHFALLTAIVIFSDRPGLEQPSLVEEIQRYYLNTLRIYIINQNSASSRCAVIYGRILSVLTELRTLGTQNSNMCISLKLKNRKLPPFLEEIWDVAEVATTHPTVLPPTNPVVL
# T1 sequence (P19793 1-462 partner): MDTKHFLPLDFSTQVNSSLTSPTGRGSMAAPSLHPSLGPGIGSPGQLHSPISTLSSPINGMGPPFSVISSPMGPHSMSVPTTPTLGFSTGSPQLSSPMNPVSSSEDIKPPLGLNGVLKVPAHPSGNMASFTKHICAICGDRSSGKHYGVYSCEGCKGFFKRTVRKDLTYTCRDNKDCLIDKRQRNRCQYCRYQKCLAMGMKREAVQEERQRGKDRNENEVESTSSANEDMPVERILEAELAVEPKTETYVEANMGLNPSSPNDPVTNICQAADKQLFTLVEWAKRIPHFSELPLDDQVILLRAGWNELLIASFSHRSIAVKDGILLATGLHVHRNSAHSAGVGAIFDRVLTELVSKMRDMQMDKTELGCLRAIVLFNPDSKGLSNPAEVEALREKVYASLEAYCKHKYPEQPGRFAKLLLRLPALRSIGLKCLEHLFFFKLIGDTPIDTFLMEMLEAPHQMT
# Experiment: Z3 assay: β-galactosidase (LacZ) reporter gene fold induction in stably transformed human 293 kidney cells (clone Z3)
# Format: cell-based
# Method in brief: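 β-Galactosidase read 48 h after dosing by bioluminescent assay; ligand added at 33 μM with DMSO held at 0.03%. The cells are stable 293 clone Z3, expressing a CMV-driven VP16 fusion of Bombyx mori EcR residues 26-546 plus six EcRE copies upstream of lacZ.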
# [1] = average; dose response, three-parameter logistic model; read-out: Z3 LC50
# [2] = maximum fold induction at any concentration relative to that of GS-E ligand
# [3] = single dose 33 μM; ligand treated / DMSO treated cells; read-out: Fold Induction Average, Z3 Assay (33 μM)
# [4] = read-out: Fold Induction Average, Z3 Assay (33 μM)
# [5] = read-out: Z3 LC50; average; dose response, three-parameter logistic model
# [6] = single dose 33 μM; ligand treated / DMSO treated cells
SMILES,CC50 [1] [µM],Z3 Rel Max FI [2],fold induction at 33 µM [3],fold induction at 33 µM [4],CC50 [5] [µM],"Fold Induction Average, Z3 Assay (33 μM) [6]"
COc1cccc(C(=O)NC(C)(C(=O)c2cccc(C)c2)C(C)C)c1C (stereo not shown) [Example 31],8.61,0.47,312,,,
COc1cccc(C(=O)C(C)(NC(=O)c2cccc(OC)c2C)C(C)C)c1 (stereo not shown) [Example 32],,0.12,,33,25.5,
COc1cc(C(=O)C2(NC(=O)c3cccc(OC)c3C)CCCCC2)cc(OC)c1C [Example 66],,0.17,,341,3.33,
CCc1c(C(=O)NC2(C(=O)c3ccccc3)CCCC2)ccc2c1OCCO2 [Example 22],,0.48,,602,~10,
COc1cccc(C(=O)NC2(C(=O)c3cccc(C)c3)CCCCC2)c1C [Example 7],,0.78,,811,3.51,
COc1cccc(C(=O)NC2(C(=O)c3cc(C)cc(C)c3)CC2)c1C [Example 13],,0.22,,293,20.4,
COc1cccc(C(=O)C2(NC(=O)c3cccc(OC)c3C)CCCCC2)c1 [Example 4],,0.54,,233,1.19,
CCC(CC)(NC(=O)c1cccc(OC)c1C)C(=O)c1ccc(F)cc1 [Example 38],13.7,0.04,51,,,
COc1cccc(C(=O)NC(C)(C(=O)c2ccccc2)C(C)C)c1C (stereo not shown) [Example 34],,0.04,,66,> 33,
CCC(CC)(NC(=O)c1cccc(OC)c1C)C(=O)c1ccc(F)c(C)c1 [Example 50],,0.07,,178,10.4,
COc1cccc(C(=O)NC2(C(=O)c3ccccc3)CCCCC2)c1C [Example 69],,0.56,,1030,7.52,
CCC(CC)(NC(=O)c1cccc(OC)c1C)C(=O)c1cccc(OC)c1 [Example 49],,0.01,,182,> 33,
COc1cccc(C(=O)NC2(C(=O)c3cc(C)cc(C)c3)CCCC2)c1C [Example 10],1.87,0.85,464,,,
COc1cccc(C(=O)C(C)(CC(C)C)NC(=O)c2cccc(OC)c2C)c1 (stereo not shown) [Example 53],,0.11,,112,23.7,
COc1cccc(C(=O)NC2(C(=O)c3cccc(C)c3)CCOCC2)c1C [Example 25],,0.07,,19,~20,
CCC(CC)(NC(=O)c1cccc(OC)c1C)C(=O)c1cccc(C)c1 [Example 48],6.61,0.25,356,,,
COc1cccc(C(=O)NC(C)(C(=O)c2cc(C)cc(C)c2)C(C)C)c1C (stereo not shown) [Example 20],,0.75,,573,2.06,
COc1cccc(C(=O)NC(C)(CC(C)C)C(=O)c2cccc(C)c2)c1C (stereo not shown) [Example 52],,0.24,,239,6.09,
COc1ccccc1C(=O)C1(NC(=O)c2cccc(OC)c2C)CCCCC1 [Example 45],,0.84,,665,0.98,
COc1cccc(C(=O)NC(C)(CC(C)C)C(=O)c2cc(C)cc(C)c2)c1C (stereo not shown) [Example 55],,0.72,,309,3.4,
COc1cccc(C(=O)NC2(C(=O)c3cc(C)cc(C)c3)CCC3(CC2)OCCO3)c1C [Example 29],,0.06,,116,~15,
COc1cc(C(=O)C2(NC(=O)c3cccc(OC)c3C)CCCC2)cc(OC)c1C [Example 65],8.84,0.06,,,,151
CCCCC(=O)C1(NC(=O)c2cccc(OC)c2C)CCCCC1 [Example 120],,0.36,,791,6.33,

SMILES,CC50 [1] [µM],Z3 Rel Max FI [2],fold induction at 33 µM [3],fold induction at 33 µM [4],CC50 [5] [µM],"Fold Induction Average, Z3 Assay (33 μM) [6]"
COc1ccccc1C(=O)C1(NC(=O)c2cccc(OC)c2C)CCCC1 [Example 40],,0.70,,951,5.16,
COc1cccc(C(=O)NC2(C(=O)c3ccccc3C)CCCCC2)c1C [Example 44],,0.23,,94,16.8,
COc1cccc(C(=O)NC2(C(=O)c3ccc(F)c(C)c3)CCCC2)c1C [Example 17],,0.43,,393,3.47,
COc1cccc(C(=O)NC(C)(C(=O)c2ccc(C)cc2)C(C)C)c1C (stereo not shown) [Example 33],~20,0.05,31,,,
COc1cccc(C(=O)NC2(C(=O)c3cc(C)cc(C)c3)CCCCC2)c1C [Example 11],1.41,0.99,722,,,
COC(=O)CN1CCCC(NC(=O)c2cccc(OC)c2C)(C(=O)c2cc(C)cc(C)c2)C1 (racemic) [Example 156],~20,0.03,,,,78
COc1cccc(C(=O)NC2(C(=O)c3ccc(F)cc3)CCCC2)c1C [Example 42],,0.14,,153,~15,
COc1cccc(C(=O)NC2(C(=O)c3ccc(F)cc3)CCCCC2)c1C [Example 60],,0.61,,817,~6,
COc1ccc(C(=O)C2(NC(=O)c3cccc(OC)c3C)CCCCC2)cc1 [Example 46],,0.03,,15,> 33,
COc1cccc(C(=O)NC(C)(Cc2ccccc2)C(=O)c2cc(C)cc(C)c2)c1C (stereo not shown) [Example 12],,0.09,,76,10,
COc1cccc(C(=O)NC2(C(=O)c3cccc(C)c3)CCSCC2)c1C [Example 26],,0.60,,751,~15,
COc1cccc(C(=O)NC(C)(C)C(=O)c2ccccc2)c1C [Example 76],> 33,0.00,,,,1
COc1cccc(C(=O)NC2(C(=O)c3cc(C)cc(C)c3)CCOCC2)c1C [Example 27],,0.81,,562,10,
COc1cccc(C(=O)NC2(C(=O)c3ccc(F)c(C)c3)CCCCC2)c1C [Example 18],,0.67,,657,3.41,
COc1cccc(C(=O)NC2(C(=O)c3cc(C)cc(C)c3)CCC2)c1C [Example 14],8.52,0.69,945,,,
COc1cccc(C(=O)NC2(C(=O)c3cc(F)c(F)c(OC)c3)CCCC2)c1C [Example 67],,0.54,,666,4.17,
CCC(CC)(NC(=O)c1cccc(OC)c1C)C(=O)c1cc(C)cc(C)c1 [Example 51],4.53,0.61,817,,,
COc1ccccc1C(=O)C(C)(NC(=O)c1cccc(OC)c1C)C(C)C (stereo not shown) [Example 30],,0.20,,485,~15,
COc1cccc(C(=O)NC(C)(C(=O)c2ccccc2C)C(C)C)c1C (stereo not shown) [Example 63],17.9,0.26,453,,,
COc1cccc(C(=O)NC2(C(=O)c3cc(C)cc(C)c3)CCSCC2)c1C [Example 28],1.6,0.98,1220,,,
CCC(CC)(NC(=O)c1cccc(OC)c1C)C(=O)c1ccccc1OC [Example 37],,0.29,,327,6.19,
COc1cccc(C(=O)NC2(C(=O)c3cc(C)cc(C)c3)CCS(=O)(=O)CC2)c1C [Example 62],,0.10,,347,~15,
COc1cccc(C(=O)C(C)(C)NC(=O)c2ccccc2OC)c1 [Example 117],,,,,,1
